Literature values as cited in US3972859A, “Novel decapeptide amide analogs of leuteinizing hormone-releasing hormone” (Takeda Chemical Industries, Ltd., priority 1974, dated 1976).

Tested on: LH-RH activity
Settings: relative to parent LH-RH; literature (Monahan et al 1973)

[D-Ala^6 ]LH-RH
potency, % of the potency of the parent LH-RH: 350-450%
